# Experimental data from patent publication US7671058B2, “N-(3,4-disubstituted phenyl) salicylamide derivatives” (Institute of Medicinal Molecular Design, Inc., priority 2006, dated 2010).
# pIC50: −log10 of the molar value. Read-outs that look alike come from different tables or passages of the source.
# Experiments:
# NF-κB = NF-κB inhibition test: pNFκB-Luc luciferase reporter in U2-OS cells stimulated with human TNF α; format: cell-based; conditions: human TNF α 10 ng/mL; for inhibition at 2 µM / Inhibition Rate of NF-κB (%): compound 2 μM, 8 hours; for inhibition at 2 µM: read-out: Inhibition Rate of NF-κB (%); for pIC50: from inhibition rates at 1, 0.1, 0.01 and 0.001 μM, read-out: IC50 against activation of NF-κB
# Description: (1) Transfection to U2-OS Cells and Inhibition Test of Activation
# U2-OS cells were seeded at 2×10^4 cells/well in 96-well culture plate, and transfection was carried out using FuGENE 6 Transfection Reagent (Roche Diagnostics GmbH). The procedures of the transfection are shown below.
# 11 μg of reporter plasmid (pNFκB-Luc; Stratagene Corporation) and 1.1 μg of pCMV β (CLONTECH Laboratories, Inc.) were mixed in 1.1 mL of OPTI-MEM I medium (GIBCO BRL) (solution (A)).
# […] of FuGENE 6 Transfection Reagent was mixed in 1.1 mL of OPTI-MEM I medium (solution (B)).
# (§1) The above solution (A) and solution (B) were mixed, let them stand for 15 minutes at room temperature, then, 8.8 mL of OPTI-MEM I medium was added and diluted.
# To this transfection solution, U2-OS cell suspension (11 mL) in McCoy's 5A medium (GIBCO BRL) containing 10% Fetal Bovine Serum (FBS; GIBCO BRL) at […] was added and well mixed.
# (§2) 0.2 mL of the above solution was dispensed into each well of 96-well culture plates, and incubated for 24 hours (37° C., 5% CO2).
# After removal of 50 μL of medium from each well, 50 μL of McCoy's 5A medium (serum-free) containing compound of the present application was added to a final concentration of 0.01˜2 μM (0.001, 0.01, 0.1, 0.5, 1 or 2 μM), and the plates were incubated for 2 hours (37° C., 5% CO2).
# 10 μL of the McCoy's 5A medium (serum-free) containing human TNF α (PEPROTECH EC Ltd.) was added to each well to achieve a final concentration of 10 ng/mL, and incubated for 8 hours (37° C., 5% CO2).
# (§3) Medium was completely removed and plates were preserved at −80° C. until measurements.
# (§4) Cell lysates were prepared by adding 40 μL of Passive Lysis Buffer (Promega Corporation) to each well.
# (§5) 10 μL of each lysate was transferred to 96-well white plates. 50 μL of PicaGene L.T.2.0 (TOYO INK MFG. CO., LTD.) was added to each well, then, luminescence was measured after leaving for 10 minutes at room temperature.
# (§6) 10 μL of each lysate was transferred to 96-well black plates. 100 μL of Z Buffer (preparation method will be explained later) was added to each well, and fluorescence was measured immediately.
# (§7) 10 μL of each lysate was transferred to 96-well clear plates. 200 μL of protein assay reagent prepared from the BCA Protein Assay Kit (Pierce Biotechnology, Inc.) was added to each well, and, absorbance was measured after incubation for 30 minutes at 37° C.
# (§8) For measurements of luminescence, fluorescence, and absorbance, microplate reader GENios (TECAN G.M.B.H.) was used.
# (3) Calculation of Inhibition Rate
# Luminescence values that show the degree of activation by TNF α stimulation were normalized by β-gal values that show transfection efficiency. Using the normalized values, the following calculation was carried out using the luminescence values that increased by TNF α stimulation. Inhibition Rate(%)=[…] E: In the presence of the compound of the present application, increased luminescence values by TNF α stimulation C: Without the presence of the compound of the present application, increased luminescence values by TNF α, stimulation
# The values of protein assay by BCA reagent were used for a simple assessment of cytotoxicity, and not used for the calculation of inhibition rates.
# NF-κB Inhibition Rates are shown below. The values in parentheses in the table represent the concentration of the compound of the present application.
# NF-κB inhibition rates where the concentrations of the compound of the present application were 1, 0.1, 0.01 and 0.001 μM were calculated, and the 50% inhibitory concentrations (IC50) of the compounds of the present application against activation of NF-κB were evaluated.
# STAT6 = STAT6 inhibition test: (GLS)x8/pTA-Luc luciferase reporter in U2-OS cells stimulated with human IL-4; format: cell-based; conditions: human IL-4 40 ng/mL; for inhibition at 2 µM / Inhibition Rate of STAT6 (%): compound 2 μM, 8 hours; for inhibition at 2 µM: read-out: Inhibition Rate of STAT6 (%); for pIC50: from inhibition rates at 1, 0.1, 0.01 and 0.001 μM, read-out: IC50 against activation of STAT6
# Description: (1) Construction of a STAT6 Reporter Plasmid
# The Oligonucleotides (SEQ ID: 1, 2) containing two copies of STAT6 binding sequences (refer to J. Biol. Chem., vol. 276, No. 9, pp. 6675-6688 (2001).) were synthesized, and integrated into the enhancer region of the reporter plasmid pTA-Luc Vector (CLONTECH Laboratories, Inc.) at the restriction enzyme BgIII site.
# When the oligonucleotide is integrated in positive direction into the plasmid, the upstream BglII site is not reconstructed. Therefore, STAT6 binding sequences can be increased by repeating integration of the oligonucleotide at the restriction enzyme BglII site.
# In the present test, a plasmid including eight integrated STAT6 binding sequences was constructed and provided for the reporter assay as (GLS)x8/pTA-Luc. Confirmation of the sequences was carried out using an automated fluorescence sequencer (Model 310 (Applied Biosystems)).
# (2) Transfection into U2-OS Cells and Inhibition Test for STAT6 Activation
# U2-OS cells were seeded to at 2×10^4 cells/well in 96-well culture plates, and transfection was carried out using FuGENE 6 Transfection Reagent (Roche Diagnostics GmbH). The procedures of the transfection are shown below.
# 11 μg of reporter plasmid ((GLS)x8/pTA-Luc) and 1.1 μg of pCMV β (CLONTECH Laboratories, Inc.) were mixed in 1.1 mL of OPTI-MEM I medium (GIBCO BRL) (solution (A)).
# 33 μL of FuGENE 6 Transfection Reagent was mixed in 1.1 mL of OPTI-MEM I medium (solution (B)).
# as §1
# To this transfection solution, U2-OS cell suspension (11 mL) in McCoy's 5A medium (GIBCO BRL) containing 10% Fetal Bovine Serum (FBS; GIBCO BRL) at 2×10^5 cells/mL was added and well mixed.
# as §2
# After removal of 50 μL of medium from each well, 50 μL of McCoy's 5A medium (serum-free) containing compound, of the present application was added to a final concentration of 0.01˜2 μM (0.001, 0.01, 0.1, 0.5, 1 or 2 μM), and the plates were incubated for 2 hours (37° C., 5% CO2).
# 10 μL of the McCoy's 5A medium (serum-free) containing human IL-4 (R&D Systems, Inc) was added to each well to achieve a final concentration of 40 ng/mL, and incubated for 8 hours (37° C., 5% CO2).
# as §3, §4, §5, §6, §7, §8
# (4) Calculation of Inhibition Rate
# Luminescence values that show the degree of activation by IL-4 stimulation were normalized by β-gal values that show transfection efficiency. Using the normalized values, the following calculations were carried out using the luminescence values increased by IL-4 stimulation. Inhibition Rate(%)=[…] E: In the presence of the compound of the present application, increased luminescence value by IL-4 stimulation C: Without the presence of the compound of the present application, increased luminescence value by IL-4 stimulation […]
SMILES,Inhibition Rate of NF-κB (%) (NF-κB),Inhibition Rate of STAT6 (%) (STAT6),also measured
O=C(Nc1ccc(N2CCNCC2)c(F)c1)c1cc(Cl)ccc1O [Compound 22],–,–,inhibition at 2 µM (NF-κB; U2OS): 82%; pIC50 (NF-κB; U2OS): 7.09; inhibition at 2 µM (STAT6; U2OS): 85%; pIC50 (STAT6; U2OS): 7.08
NC1CCN(c2ccc(NC(=O)c3cc(Cl)ccc3O)cc2F)CC1 [Compound 27],–,–,inhibition at 2 µM (NF-κB; U2OS): 95%; pIC50 (NF-κB; U2OS): 8.17; inhibition at 2 µM (STAT6; U2OS): 98%; pIC50 (STAT6; U2OS): 8.49
O=C(Nc1ccc(C2CCNCC2)c(F)c1)c1cc(Cl)ccc1O [Compound 41],–,–,inhibition at 2 µM (NF-κB; U2OS): 74%; inhibition at 2 µM (STAT6; U2OS): 78%
CNC1CCN(c2ccc(NC(=O)c3cc(Cl)ccc3O)cc2F)CC1 [Compound 68],–,–,inhibition at 2 µM (NF-κB; U2OS): 71%; pIC50 (NF-κB; U2OS): 7.20; inhibition at 2 µM (STAT6; U2OS): 74%; pIC50 (STAT6; U2OS): 7.39
CN(C)C1CCN(c2ccc(NC(=O)c3cc(Cl)ccc3O)cc2F)CC1 [Compound 78],–,–,inhibition at 2 µM (NF-κB; U2OS): 49%; inhibition at 2 µM (STAT6; U2OS): 46%
"O=C(Nc1cc(C(F)(F)F)cc(C(F)(F)F)c1)c1cc(Cl)ccc1O [N-[3,5-Bis(trifluoromethyl)phenyl]-5-chloro-2-hydroxybenzamide, reference compound]",–,–,pIC50 (NF-κB; U2OS): 6.41
O=C(Nc1ccc(N2CCCCC2)c(F)c1)c1cc(Cl)ccc1O [compound 2],77 (2 μM) %,90 (2 μM) %,pIC50 (NF-κB): 7.40; pIC50 (STAT6): 7.24
O=C(Nc1ccc(N2CCOCC2)c(C(F)(F)F)c1)c1cc(Cl)ccc1O [compound 3],30 (2 μM) %,67 (2 μM) %,–
O=C(Nc1ccc(N2CCCCC2)c(C(F)(F)F)c1)c1cc(Cl)ccc1O [compound 4],28 (2 μM) %,71 (2 μM) %,–
O=C(Nc1ccc(OC2CCCCC2)c(C(F)(F)F)c1)c1cc(Cl)ccc1O [compound 5],63 (2 μM) %,88 (2 μM) %,–
O=C(Nc1ccc(N2CCCCCC2)c(F)c1)c1cc(Cl)ccc1O [compound 7],46 (2 μM) %,84 (2 μM) %,–
O=C(Nc1ccc(N2CCCCC2)c(Cl)c1)c1cc(Cl)ccc1O [compound 8],61 (2 μM) %,93 (2 μM) %,–
Cc1cc(NC(=O)c2cc(Cl)ccc2O)ccc1N1CCCCC1 [compound 9],–,53 (2 μM) %,–
O=C(Nc1ccc(OC2CCCCC2)c(F)c1)c1cc(Cl)ccc1O [compound 10],45 (2 μM) %,76 (2 μM) %,–
CC(=O)N1CCN(c2ccc(NC(=O)c3cc(Cl)ccc3O)cc2F)CC1 [compound 11],22 (2 μM) %,40 (2 μM) %,–
CN1CCN(c2ccc(NC(=O)c3cc(Cl)ccc3O)cc2F)CC1 [compound 12],91 (2 μM) %,94 (2 μM) %,pIC50 (NF-κB): 7.60; pIC50 (STAT6): 7.82
CCOc1cc(NC(=O)c2cc(Cl)ccc2O)ccc1N1CCCCC1 [compound 14],60 (2 μM) %,56 (2 μM) %,–
Cl.O=C(Nc1ccc(N2CCC(N3CCCC3)CC2)c(F)c1)c1cc(Cl)ccc1O [compound 15],53 (2 μM) %,59 (2 μM) %,–
CN1CCN(c2ccc(NC(=O)c3cc(Cl)ccc3O)cc2C(F)(F)F)CC1.Cl [compound 16],86 (2 μM) %,92 (2 μM) %,pIC50 (NF-κB): 7.05; pIC50 (STAT6): 7.09
CN1CCN(c2ccc(NC(=O)c3cc(Cl)ccc3O)cc2Cl)CC1.Cl [compound 17],90 (2 μM) %,96 (2 μM) %,pIC50 (NF-κB): 6.95; pIC50 (STAT6): 7.08
Cc1cc(NC(=O)c2cc(Cl)ccc2O)ccc1N1CCN(C)CC1.Cl [compound 18],67 (2 μM) %,79 (2 μM) %,pIC50 (NF-κB): 6.83; pIC50 (STAT6): 7.04
Cc1cc(NC(=O)c2cc(Cl)ccc2O)ccc1N1CCNCC1 [compound 23],11 (2 μM) %,24 (2 μM) %,–
CN1CCC(Oc2ccc(NC(=O)c3cc(Cl)ccc3O)cc2F)CC1 [compound 24],91 (2 μM) %,93 (2 μM) %,pIC50 (NF-κB): 7.36; pIC50 (STAT6): 7.43
Cc1cc(NC(=O)c2cc(Cl)ccc2O)ccc1OC1CCN(C)CC1 [compound 25],60 (2 μM) %,80 (2 μM) %,–
CN1CCN(c2ccc(NC(=O)c3ccccc3O)cc2F)CC1.Cl [compound 30],–,19 (2 μM) %,–
Cl.O=C(Nc1ccc(OC2CCCNC2)c(F)c1)c1cc(Cl)ccc1O (centres unmarked) [compound 56],–,19 (2 μM) %,–
CC1CN(c2ccc(NC(=O)c3cc(Cl)ccc3O)cc2F)CCN1.Cl (centres unmarked) [compound 73],–,20 (2 μM) %,–
CC1CCCN1c1ccc(NC(=O)c2cc(Cl)ccc2O)cc1F (centres unmarked) [compound 82],–,38 (2 μM) %,–
